The results in this text go back to article PMC10540216, “Activity Guided Azide-methyllysine Photo-trapping for Substrate Profiling of Lysine Demethylases” (Journal of the American Chemical Society, 2023).

“Also recorded” adds a separate entry of the source. Where no end group is shown, it is not given here. [ ]: non-standard residue; d: D form. Lys(Me3) = C[N+](C)(C)CCCC[C@H](N)C(=O)O

Assay [1] concerns DOT1L. In words: Methylation of eIF4A3-K374 peptides by KMT (MALDI-TOF MS). It is filed as biochemical. Conditions: 20 µM KMT, 10 µM peptide, 200 µM SAM. Here is the method:
(§1) expression constructs in pET28a or pET 28-MHL were obtained from Addgene: CAMKMT […]
(§2) (Addgene #60091) and METTL21C (Addgene #60100). Plasmids were transformed into E. Coli BL21 (DE3) competent cells (Invitrogen) using appropriate resistant antibiotic. A single colony was picked up and grown overnight at 37 °C in 10 mL of Luria-Bertani (LB) broth in the presence of 50 μg/mL kanamycin and 35 μg/mL chloramphenicol. The culture was diluted 100-fold and allowed to grow at 37 °C to an optical density (OD600) of a minimum of 0.8, and protein expression was induced overnight at 17 °C with 0.5 to 1.0 mM IPTG in an Innova 44® Incubator shaker (New Brunswick Scientific). Proteins were purified as follows: harvested cells were resuspended in 15 mL lysis buffer (50 mM Tris-HCl pH 8.0, 200 mM NaCl, 5 mM β-mercaptoethanol, 10% glycerol, 25 mM imidazole, Lysozyme, DNase, and Roche protease inhibitor cocktail). The cells were lysed by pulsed sonication (Qsonica-Q700), and centrifuged at 13,000 rpm for 40 min at 4°C. The soluble extracts were subject to Ni-NTA agarose resin (Thermo) according to manufacturer’s instructions. After passing 20 volumes of washing buffer (50 mM Tris-HCl pH 8.0, 200 mM NaCl, 5 mM β-mercaptoethanol, 10% glycerol, and 25 mM imidazole), proteins were eluted with a buffer containing 50 mM Tris-HCl pH 8.0, 200 mM NaCl, 5 mM β-mercaptoethanol, 10% glycerol, and 400 mM imidazole. Proteins were further purified by size exclusion chromatography (Superdex-200) using AKTA pure FPLC system (GE healthcare) with buffer containing 50 mM Tris-HCl pH 8.0, 200 mM NaCl, and 10% glycerol. Purified proteins were concentrated using Pierce™ Protein Concentrator PES, 10K MWCO, 5-20 mL (Thermo Scientific™ 88527). The protein concentration was determined using Bradford assay kit (BioRad Laboratories) with BSA as a standard. The concentrated proteins were stored at -80 °C before use. […]
(§3) 16. Methylation activity of wild type KMTs on eIF4A3-K374me0/1/2 peptides 20 µM lysine methyltransferase, 10 µM eIF4A3-me0/1/2 peptide and 200 µM SAM were incubated at room temperature for 1-2 hours in 50 mM Tris pH 8.0. Reaction was stopped by storing the microcentrifuge tubes on ice. After mixing, 0.8 µL of sample and 0.8 µL of α-cyano-4-hydroxycinnamic acid (CHCA) (dissolved in 50:50 0.1% TFA and acetonitrile) were combined on a MALDI plate. Samples were ionized using reflectron positive mode on Bruker Daltonics UltrafleXtreme MALDI TOF with detection carried out from 700-3500 m/z. Bruker Flex Analysis software was used to analyze the MALDI-TOF MS spectra.
(§4) 17. Isothermal Titration Calorimetry […]
(§5) The microsyringe (40µL) was loaded with 1.1 mM peptide and injected into the cell (200µL), occupied by CBX1 chromodomain at a concentration of 110 µM. […]

For assay [2], the system named is METTL20. The assay is described as above. To be noted: 20 µM KMT, 10 µM peptide, 200 µM SAM. It is filed as biochemical. Here is the method: as §1, §2, §3, §4, §5
In assay [3] the test system is METTL21A. The assay is described as above. Format: biochemical. Conditions: 20 µM KMT, 10 µM peptide, 200 µM SAM. The method, then:
as §1, §2, §3, §4, §5

The test system of assay [4] is METTL21C. The assay is described as above. It is filed as biochemical. To be noted: 20 µM KMT, 10 µM peptide, 200 µM SAM. The method, then: as §1, §2, §3, §4, §5
Assay [5] has as its system SUV39H2. Described as above. It is filed as biochemical. Conditions: 20 µM KMT, 10 µM peptide, 200 µM SAM. Here is the method: (§6) 7. Expression and purification of lysine methyltransferases and Chromodomains […]
as §3, §4
(§7) The microsyringe (40µL) was loaded with 1.1 mM peptide and injected into the cell (200µL), occupied by CBX1 chromodomain at a concentration of 110 µM. Data was fitted to a single binding site model using Microcal ITC200 Software with Origin Lab 7.
(§8) KDM4A mammalian expression plasmid in CMV vector was purchased from Addgene (plasmid #24180). Full-length G9a in pCDNA3 vector was kind from Prof. Minkui Luo at the Memorial Sloan-Kettering Cancer Center. HEK293T/17 cells (ATCC) were grown in a T25 containing Delbucco’s Modified Eagle Medium (DMEM) (Corning) with 10% FBS at 37 °C, 5% CO2, and 95% relative humidity. When cells reached 80% confluency, 5 µg of plasmid and 10 µg

Assay [6] relates to G9a. Described as above. Format: biochemical. To be noted: 20 µM KMT, 10 µM peptide, 200 µM SAM. The method, then:
as §6, §3, §4, §7, §8

The target of assay [7] is T1, CBX1 chromodomain (Homo sapiens, UniProt P83916).
T1 construct: occupied by CBX1 chromodomain at a concentration of 110 µM; 6xHis (N); made in house
T1 sequence (P83916 21-79 limits assumed): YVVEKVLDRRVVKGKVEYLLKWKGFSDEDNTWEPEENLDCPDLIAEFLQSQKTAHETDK
In words: Isothermal titration calorimetry of peptide binding to CBX1 chromodomain. To be noted: ITC, T 288.15 K in Table S6.

In assay [8] the target is T1, CBX1 chromodomain. Described as above. To be noted: ITC, 25 °C, 1.1 mM peptide into 110 µM CBX1 chromodomain, 50mM Tris pH 8.0. Here is the method:
as §6
17. Isothermal Titration Calorimetry
Isothermal titration calorimetry (ITC) was performed with an ITC200 instrument (MicroCal, Malvern). Experiments were conducted at 25 °C while stirring at 750 rpm. Buffers of protein […]
were matched to 200mM NaCl, 10% glycerol, and 50mM Tris pH 8.0. Each titration was performed as follows: one initial injection of 0.4 µL for 0.8 seconds, followed by 19 injections of 2.0 µL for 4 seconds, with ≥2 mins between each injection. The initial injection was discarded prior to data analysis. The microsyringe (40µL) was loaded with 1.1 mM peptide and injected into the cell (200µL), occupied by CBX1 chromodomain at a concentration of 110 µM. Data was fitted to a single binding site model using Microcal ITC200 Software with Origin Lab 7.
as §8

The subject of assay [9] is KDM4E. The experiment in a line: Demethylase activity of wild type KDM4E on peptide substrates (MALDI-TOF MS). To be noted: 10 µM enzyme, 10 µM peptide, 1 mM 2OG, 50 mM Tris pH 8, 37°C, three hours. Format: biochemical. The method, then:
200 FPLC column. The proteins were concentrated via centrifugation. Protein concentration was determined using Bradford assay.
The N-terminal 6xHis-tagged KDM4E construct for bacterial expression was purchased from Addgene (#38990) and expressed following reported method.8 The wild type KDM4E plasmid was transformed into E. Coli BL21 (DE3) competent cells (Invitrogen) using pNIC28-Bsa4 kanamycin-resistant vector. A single colony was grown overnight at 37 °C in 10 mL of Luria-Bertani (LB) broth in the presence of 50 μg/mL kanamycin and 35 μg/mL chloramphenicol. The culture was diluted 100-fold and allowed to grow at 37 °C to an optical density (OD600) of 0.8, and protein expression was induced overnight at 17 °C with 1 mM IPTG in an Innova 44® Incubator shaker (New Brunswick Scientific). KDM4E was purified from pelleted cells by resuspending in lysis buffer (50 mM Tris-HCl pH 8.0, 200 mM NaCl, 5 mM β-ME, 10% glycerol, 25 mM imidazole, lysozyme, DNase, and Pierce protease inhibitor cocktail). The cells were lysed by sonication at 60 mA, 10 seconds on followed by 10 seconds off, for a total of 2 minutes. The cell debris was pelleted at 13,000 rpm for 40 minutes. The soluble cell extracts were incubated with Ni-NTA agarose resin (Thermo) according to manufactures protocol. […] Bradford Dye (BioRad) was used to quantify the protein concentration using BSA as a standard. […]

As for “GRSGRYGRKGVAINFVK [compound 21, eIF4A3-K374me0 peptide]”, the “methylation by DOT1L (in words)” value in assay [1] was “failed to methylate”. Further, the “methylation by METTL20 (in words)” value in [2] was “failed to methylate”. Moreover, the “methylation by METTL21A (in words)” value in assay [3] is reported as “failed to methylate”. Moreover, the “methylation by METTL21C (in words)” value in [4] was “failed to methylate”. For the same substance, in [5], the “methylation by SUV39H2 (in words)” value was “also methylated eIF4A3-K374me0; also recorded: monomethylated”. Besides, the “methylation by G9a (in words)” value in [6] is “also methylated eIF4A3-K374me0; also recorded: di- and trimethylation”. In assay [7], this substance showed a TΔS of 0 kcal/mol, a ΔG of 0 kcal/mol, a ΔH of 0 kcal/mol and a ΔS of 0 cal/mol/degree. The “binding to CBX1 chromodomain (in words)” value in assay [8] is on record as “no detectable interaction”.
With “NTKRESGR[Lys(Me3)]VQSGNINA [compound 15, TCPG-K21me3 peptide]”, in assay [9], the “demethylation by KDM4E” value is “marginally demethylated only by KDM4E”.
